Test [1] relates to KB-3-1 adenocarcinoma cells. The test is described as follows: MTT cytotoxicity assay, parental P-gp-negative KB-3-1 cells. Format: cell-based, human. As for the experimental part:
(§1) Exemplary compounds were also tested against the KB-V1 adenocarcinoma cell line that expresses high levels of P-gp (the protein product of MDR1). […] MDR1 selectivity is determined by the ratio of IC50 against KB-3-1 cells divided by its IC50 against KB-V1 cells.
(§2) This example describes evaluation of compounds using the MTT cytotoxicity assay. Cell survival was measured by the MTT (3-(4,5-dimethylthiazol-2-yl)-2,5-diphenyltetrazolium bromide) assay as previously described by Ludwig, J. A. et al. Selective toxicity of NSC73306 in MDR1-positive cells as a new strategy to circumvent multidrug resistance in cancer. […] Briefly, cells were seeded in […] of growth medium at a density of 5000 cells/well in 96-well plates and allowed to establish for 24 hours, at which time serially diluted drugs were added in an additional […] growth medium. Cells were then incubated for 72 hours at 37° C. in humidified 5% CO2, at which time the growth media was drawn, and replaced with MTT in IMDM growth media and incubated for 4 hours. The MTT solution was then drawn from the wells, and […] acidified ethanol solution was added to each well and after 15 minutes absorption at 560 nm was measured.

For test [2], the system named is KB-V1 adenocarcinoma cell line. The test is described as follows: MTT cytotoxicity assay, P-gp (MDR1) expressing KB-V1 cells; MDR1 selectivity vs KB-3-1. The test is classed as cell-based, human. As to conditions: for IC50: MTT, 72 hours; for MDR1 selectivity / MDR1 select.: ratio of IC50 against KB-3-1 divided by IC50 against KB-V1; for MDR1 selectivity: >1 = MDR1-inverse activity. As for the experimental part:
as §1, §2

Setting [3] is: Homo sapiens, Table 1, 72 hours, KB-3-1 (P-gp-negative).
Setting [4] is: Homo sapiens, Table 1, KB-V1 (high P-gp).
The mark [5] stands for this setting: Table 2, 72 hours, unit inferred.

Experimental findings from patent US20100316655A1, “COMPOUNDS WITH MDR1-INVERSE ACTIVITY” (priority 2008, published 2010) are described below.

On to `O=C1Nc2ccc(Br)cc2/C1=N/NC(=S)Nc1ccc([N+](=O)[O-])cc1` [drawing 23], for which the IC50 came to 28.4 ± 5.2 µM in test [1] (setting [3]) and 4 ± 0.6 µM in test [2] (setting [4]). Besides, in test [2] (Table 1), the MDR1 selectivity stood at 7.1.
Turning to `O=C1Nc2ccccc2C1=NNC(=S)Nc1ccc(C(=O)O)cc1` [Compound M19, 1-isatin-4-(4′-carboxyphenyl)-3-thiosemicarbazone], the half-inhibitory concentration (IC50) in test [1] (setting [5]) was above 50 µM; in test [2] (Table 2, unit inferred), above 50 µM. Also, in test [2] (Table 2), the MDR1 select. came to 1.00.
Turning to `COc1ccc(NC(=S)NN=C2Cc3ccccc3C2)cc1`, the IC50 in test [1] (setting [3]) and in test [2] (setting [4]) was above 50 µM each time.
For the molecule `O=C1Nc2ccccc2/C1=N/NC(=S)Nc1ccc([N+](=O)[O-])cc1` [Compound M17, 1-Isatin-4-(4′-nitrophenyl)thiosemicarbazone], the half-maximal inhibitory concentration (IC50) was 17.2 µM in test [1] (Homo sapiens, KB 3-1, Table 2, 72 hours, unit inferred) and 2.07 µM in test [2] (Homo sapiens, KB-V1, Table 2, unit inferred). In test [2] (Table 2), the MDR1 select. is 8.27.
As for `O=C1Nc2ccccc2C1=NNC(=S)NC12CC3CC(CC(C3)C1)C2` [Compound M22, 1-isatin-4-(1′-adamantyl)-3-thiosemicarbazone], the 50% inhibitory concentration (IC50) came to 3.16 µM in test [1] (setting [5]) and 1.02 µM in test [2] (Table 2, unit inferred). Besides, the MDR1 select. in test [2] (Table 2) is recorded as 3.09.
Turning to `COc1ccc(NC(=S)N/N=C2\C(=O)N(C)c3ccccc32)cc1` [drawing 35], the values for the IC50 in test [1] (setting [3]) and in test [2] (setting [4]) were 19.6 ± 1.7 µM and 9.3 ± 2.8 µM, respectively. For the same molecule, in test [2] (Table 1), the MDR1 selectivity was found to be 2.1.
Take `COc1ccc(NC(=S)N/N=C2\C(=O)Nc3c2ccc2ccccc32)cc1`: the half-inhibitory concentration (IC50) in test [1] (setting [3]) came out at 4.4 ± 3.6 µM; in test [2] (setting [4]), 30.3 ± 5.9 µM. In test [2] (Table 1), the MDR1 selectivity amounted to 0.1.
For `O=C1Nc2ccccc2C1=NNC(=S)Nc1cccc(Cl)c1` [Compound M7, 1-Isatin-(3′-chlorophenyl)-3-thiosemicarbazone], the IC50 in test [1] (setting [5]) amounted to 1.87 µM; in test [2] (Table 2, unit inferred), 0.64 µM. Also, in test [2] (Table 2), the MDR1 select. is listed as 2.92.
With `COc1ccccc1NC(=S)NN=C1C(=O)Nc2ccccc21` [Compound M18, 1-isatin-4-(2′-methoxyphenyl)-3-thiosemicarbazone], the 50% inhibitory concentration (IC50) was 4.96 µM in test [1] (setting [5]) and 2.69 µM in test [2] (Table 2, unit inferred). Also, the MDR1 select. in test [2] (Table 2) is reported as 1.84.
As to `COc1ccc(NC(=S)N/N=C2\C(=O)Nc3ccc([N+](=O)[O-])cc32)cc1` [drawing 39], the IC50 in test [1] (setting [3]) is 26.3 ± 5.5 µM; in test [2] (setting [4]), 6.7 ± 2.9 µM. The MDR1 selectivity in test [2] (Table 1) was 4.0.
Turning to `COc1ccc(NC(=S)N/N=C2\C(=O)Nc3ccc(S(=O)(=O)O)cc32)cc1`, the IC50 in test [1] (setting [3]) and in test [2] (setting [4]) was above 50 µM throughout.
As for `O=C1Nc2ccccc2C1=NNC(=S)Nc1cccc2ccccc12` [Compound M20, 1-isatin-4-(1′-napthyl)-3-thiosemicarbazone], the IC50 is 5.12 µM in test [1] (setting [5]) and 2.21 µM in test [2] (Table 2, unit inferred). Also, the MDR1 select. in test [2] (Table 2) stood at 2.32.
Regarding `COc1ccc(NC(=O)N/N=C2\C(=O)Nc3ccccc32)cc1`, the values for the IC50 in test [1] (setting [3]) and in test [2] (setting [4]) were 27.7 ± 3.3 µM and above 50 µM, respectively.
As to `O=C1Nc2ccccc2C1=NNC(=S)NC1CCCCC1` [Compound M2, 1-Isatin 4-cyclohexyl-3-thiosemicarbazone], the IC50 was determined as 9.14 µM in test [1] (setting [5]) and 4.38 µM in test [2] (Table 2, unit inferred). In addition, the MDR1 select. in test [2] (Table 2) worked out at 2.09.
As to `COc1ccc(NC(=S)NN)cc1`, the IC50 in test [1] (setting [3]) and in test [2] (setting [4]) was above 50 µM in each case.
`O=C1Nc2ccccc2C1=NNC(=S)Nc1ccc(C(F)(F)F)cc1` [Compound M9, 1-Isatin-4-(4′-(trifluoromethyl)phenyl)-3-thiosemicarbazone]: the IC50 in test [1] (setting [5]) amounted to 8.59 µM; in test [2] (Table 2, unit inferred) it was 2.1 µM. For the same molecule, in test [2] (Table 2), the MDR1 select. came to 4.09.
Regarding `COc1ccc(NC(=S)N/N=C/c2ccc(NC(C)=O)cc2)cc1`, the IC50 in test [1] (setting [3]) and in test [2] (setting [4]) was above 50 µM each time.
On to `Cc1cnc(/C=N/NC(N)=S)c2cccc(N)c12`, for which the half-inhibitory concentration (IC50) in test [1] (setting [3]) was determined as 1.9 ± 0.8 µM; in test [2] (setting [4]), 2.1 ± 0.3 µM. Moreover, the MDR1 selectivity in test [2] (Table 1) was found to be 0.9.
In the case of `O=C1Nc2ccccc2C1=NNC(=S)Nc1ccccc1Cl` [Compound M5, 1-Isatin-(2′-chlorophenyl)-3-thiosemicarbazone], the IC50 in test [1] (setting [5]) worked out at 2.22 µM; in test [2] (Table 2, unit inferred), 1.17 µM. In addition, the MDR1 select. in test [2] (Table 2) came out at 1.89.
Turning to `C=CCNC(=S)N/N=C1\C(=O)Nc2ccccc21` [drawing 40], the half-maximal inhibitory concentration (IC50) in test [1] (setting [3]) amounted to 26.1 ± 2.6 µM; in test [2] (setting [4]), 20.7 ± 7.7 µM. Further, the MDR1 selectivity in test [2] (Table 1) is 1.3.
Consider `NC(=O)N/N=C1\C(=O)Nc2ccccc21`, for which the IC50 in test [1] (setting [3]) and in test [2] (setting [4]) was above 50 µM each time.
